Patent US20260275292A1, “MATURATION MEDIUM COMPOSITIONS AND METHODS FOR HUMAN HEART ORGANOID MATURATION” (Board of Trustees of Michigan State University, priority 2022, published 2026)
Where a name gives a salt, the structure may show the parent alone.

Legend:
human heart organoids [1] = experiment: Immunofluorescence, confocal microscopy and image analysis; type: cell-based
Description: Immunofluorescence. Human heart organoids were transferred from the round bottom ultra-low attachment 96 well plate to 1.5 mL microcentrifuge tubes (Eppendorf) using a cut 200 μL pipette tip (to increase tip bore diameter as to not disturb the organoid). Organoids were fixed in 4% paraformaldehyde (VWR) in PBS for 30 minutes. Following, organoids were washed using PBS-Glycine (1.5 g/L) three times for 5 minutes each. Organoids were then blocked and permeabilized using a solution containing 10% Donkey Normal Serum (Sigma), 0.5% Triton X-100 (Sigma), and 0.5% BSA (Thermo Fisher Scientific) in PBS on a thermal mixer at 300 rpm at 4° C. overnight. Organoids were then washed 3 times using PBS and incubated with primary antibodies (Table 4) within a solution containing 1% Donkey Normal Serum, 0.5% Triton X-100, and 0.5% BSA in PBS (hereafter termed “Antibody Solution”) on a thermal mixer at 300 rpm at 4° C. for 24 hours.
Following, organoids were washed 3 times for 5 minutes each using PBS. Organoids were then incubated with secondary antibodies (Table 4) in Antibody Solution on a thermal mixer at 300 rpm at 4° C. for 24 hours in the dark. Subsequently, organoids were washed 3 times for 5 minutes each using PBS and mounted on glass microscope slides (Fisher Scientific). 90 μm Polybead Microspheres (Polyscience, Inc.) were placed between the slide and a No. 1.5 coverslip (VWR) to provide support pillars such that the organoids could retain three dimensionality. Organoids were transferred to the glass microscope slides using a cut 200 uL pipette tip and mounted using a clearing solution described previously^153. T-tubule staining was performed using FITC-conjugated Wheat Germ Agglutinin (WGA) lectins (Sigma).
Confocal Microscopy and Image Analysis. […] Images were analyzed using Fiji. […] Thresholds were generated for the equalized image intensity values.
(§1) Ondansetron treatment. Ondansetron hydrochloride (Sigma) was prepared at 200 μM in DMSO and was further diluted in DMEM/F12 ((Dulbecco's Modified Eagle Medium/Nutrient Mixture F-12) before being sterile filtered via a 0.22 μm PVDF filter (Sigma). Ondansetron was applied to heart organoids at final concentrations of 1 μM, 10 μM, and 100 μM in EMM2/1 medium, and was applied from Day 9 to Day 20 of culture. Organoids were collected on Day 30 for analysis.
DEAB and Retinoic Acid treatment. 4-Diethylaminobenzaldehyde (DEAB) (Sigma) was prepared at 1 M in DMSO, diluted further to 10 mM using DMSO, then finally diluted to 1 mM in DMEM/F12. Retinoic Acid (RA) (Sigma) was prepared at 1 M in DMSO, and diluted to 100 μM in DMEM/F12. Diluted solutions of DEAB and RA were sterile filtered via 0.22 μm PVDF filters (Sigma). […] DEAB, RA, and DEAB+RA were applied to heart organoids from Day 20 to Day 30 of culture using the EMM2/1 strategy. Organoids were collected on Day 30 for analysis.

human heart organoids [2] = experiment: FlipGFP (active caspase 3) apoptosis reporter fluorescence in heart organoids; conditions: 10 μM, 48 hours, Day 28 to Day 30, EMM2/1 organoids
human heart organoids [3] = experiment: Brightfield microscopy of organoid size and beating; type: cell-based
human heart organoids [4] = experiment: Voltage imaging with di-8-ANEPPS; type: cell-based; conditions: 10 and 100 μM conditions
Description: Voltage imaging. Voltage activity within human heart organoids was assessed using di-8-ANEPPS (Thermo Fisher Scientific). Di-8-ANEPPS was solubilized in DMSO per the manufacturer's instructions. A 15 μM solution of di-8-ANEPPS was prepared in respective medium (Control, MM, EMM1, etc.). Organoids were washed twice using RPMI 1640 basal medium, then di-8-ANEPPS was added at a final concentration of 10 μM and incubated for 30 minutes at 37° C. and 5% CO2. Organoids were then washed twice using their respective medium (Control, MM, EMM1, etc.) and transferred to a chambered coverglass slide (Cellvis) using a cut 200 μL pipette tip. Videos were acquired using a Cellvivo microscope (Olympus) at 100 frames per second over 10 total seconds as an image stack at either 20× magnification (ondansetron) or 100× magnification (maturation electrophysiology). Samples were excited at 465 nm excitation and 630 nm emission was collected. Data was processed using Fiji and Microsoft Excel. Baseline F0 of fluorescence intensity F was calculated using the average of the lowest 50 intensity values in the acquired dataset. Fluorescence change ΔF/F0 was calculated using the same method as with Calcium imaging presented above. APD30 and APD90 were measured from the midpoint of the upstroke until 30% or 90% repolarization, respectively^162.
as §1

human heart organoids [5] = test system: human heart organoids
human heart organoids [6] = experiment: Real time RT-PCR gene expression in heart organoids; type: cell-based; conditions: day 30, EMM2/1 organoids
Description: Real time RT-PCR. Organoids were collected at day 20, 21, 23, 25, and 30 and stored in RNAprotect (Qiagen) at −20° C. RNA was extracted using the Qiagen RNEasy Mini Kit according largely to the manufacturer's instructions. Organoids were lysed using the Bead Mill 4 Homogenizer (Fisher Scientific) at speed 2 for 30 seconds. RNA concentration was measured using a NanoDrop One (Thermo Fisher Scientific). A minimum threshold of […] was required to proceed with reverse transcription. cDNA was generated using the Quantitect Reverse Transcription Kit (Qiagen) and stored at −20° C. Primers for real time qPCR were designed using the Primer Quest tool (Integrated DNA Technologies). SYBR Green (Thermo Fisher Scientific) was used as the DNA intercalating dye and the amplifier for the reaction vessel. Real time qPCR was performed using the QuantStudio 5 Real-Time PCR system (Applied Biosystems) using a total reaction volume of 20 μL. Gene expression levels were normalized to HPRT1 expression in each independent sample. Log base 2 fold change values were obtained using the double delta CT method.

[7] = 10 μM, Day 20 to Day 30, EMM2/1 organoids

Q: `CCN(CC)c1ccc(C=O)cc1` [DEAB, 4-Diethylaminobenzaldehyde] was tested. Which “MYL3+ area relative to Untreated organoids” value (human heart organoids [1]; [7]) did it give?
A: The value was 0.35 fold.

Q: What about the “NR2F2+ area relative to Untreated organoids” value (human heart organoids [1]; [7]) of the same molecule?
A: The value was 0.42 fold.

Q: For `COc1cccc2c1C(=O)c1c(O)c3c(c(O)c1C2=O)C[C@@](O)(C(=O)CO)C[C@@H]3O[C@H]1C[C@H](N)[C@H](O)[C@H](C)O1` [doxorubicin, Doxorubicin hydrochloride], which “FlipGFP fluorescence (apoptosis), positive control” value (human heart organoids [2]) is on record?
A: Its value is “high levels of fluorescence”.

Q: Which results are given for `Cc1nccn1CC1CCc2c(c3ccccc3n2C)C1=O` (stereo not shown) [ondansetron, Ondansetron hydrochloride]?
A: MYL2+ area relative to Untreated (human heart organoids [1]; 10 μM, day 9 until day 30, EMM2/1 organoids): 0.55 fold; MYL2+ area relative to Untreated (human heart organoids [1]; 100 μM, day 9 until day 30, EMM2/1 organoids): 0.18 fold; structural organization of organoids compared to Untreated (human heart organoids [1]; 100 μM, day 30, EMM2/1 organoids): structurally less organized; MYL7+ area (human heart organoids [1]; 1, 10 and 100 μM, day 9 until day 30, EMM2/1 organoids): remained unchanged; beating of heart organoids over time (human heart organoids [3]; 100 μM condition): most marked loss in cardiac activity; beating of heart organoids over time (human heart organoids [3]; day 0 to day 30, all concentrations): progressive loss of beating; APD30 compared to Untreated (human heart organoids [4]): increased; APD90 compared to Untreated (human heart organoids [4]): increased; action potential amplitude compared to Untreated (human heart organoids [4]): decreased; action potential frequency compared to Untreated (human heart organoids [4]): decreased frequencies; apoptosis (FlipGFP fluorescence) (human heart organoids [5]): does not contribute to apoptosis; MYL2 expression relative to Untreated (human heart organoids [6]; 10 μM): 0.58 fold; MYL2 expression relative to Untreated (human heart organoids [6]; 100 μM): 0.40 fold
